One data set concerns bone collagen. Put plainly: Bone collagen synthesis rate (ks) in ovariectomized rats by ^2H2O labeling. The class given is in vivo. Particulars: ovariectomized female rats, pellet 200 μg. Here is the method:
The fractional synthesis or replacement rate (ks) of proteins or peptides may be determined by application of the continuous labeling, precursor-product formula: [formula] where A^∞ represents the asymptotic or plateau value of the amino acid I.E. (isotopic enrichment) possible under the labeling conditions present and AA(protein)t represents the measured protein-bound amino acid at time t.
Ovariectomy was performed in adult female rodents as described (9). After allowing 3 weeks for recovery from surgery, the rats received either estradiol by subcutaneous pellet (200 μg) or sham placement of pellet. ^2H2O labeling was initiated at the time of pellet placement and continued for 2 weeks, at which time the animals were sacrificed and bone was collected.
Rats were killed every 1–2 weeks during a 10-week period of ^2H2O administration. The rear left femur was collected and was dissected free of soft tissue. Bone marrow and trabecular bone were removed using a needle with sharp cutting surface (ref: Bone 2000). After washing 3 times with water, the bone was splintered and powdered under liquid N2 in a Spex mill and defatted with chloroform:methanol (1:1, v:v). After drying, the powdered bone was subjected to acid hydrolysis in 6N HCl (110° C., 24 hr). The free AA were dried under N2 gas and derivatized for analysis by gas chromatography/mass spectrometry (GC/MS). […]

For data set [1] the following is noted: cited from earlier work.
The nature of data set [2]: In vitro ^2H label exchange / label stability studies. The class given is physicochemical. Particulars: acid-hydrolysis conditions used for proteins (6N HCl).
For data set [3] the following is noted: rat, in vivo.
Source text: The ^2H2O labeling protocol consisted of an initial intraperitoneal (ip) injection of 99.9% ^2H2O, to achieve ca. 2.5% body water enrichment (assuming total body water to be 60% of body weight) followed by administration of 4% ^2H2O in drinking water. For labeling of rats in utero, 4% drinking water was started while the male and female adult rats were housed together for mating (i.e. before pregnancy) and the 4% ^2H2O drinking water was continued through the pregnancy and post-delivery period.
The ^2H2O enrichment of body water was measured by a GC/MS technique that we have described elsewhere (Neese et al., Analytic Biochem 298(2):189–95, 2001). Briefly, the hydrogen atoms from water (10 μL) were chemically transferred to acetylene by reaction with calcium carbide in a sealed vial. Acetylene gas was then derivatized by injection into another sealed vial containing 0.5 ml Br2 (0.1 mM) dissolved in CCl4, followed by quenching of remaining Br2 with cyclohexene. The resulting tetrabromoethane was dissolved in CCl4 and was analyzed by GC/MS, using a DB-225 column (30 m, J&W, Folsom, Calif.) at 180° C., with methane chemical ionization (C.I.). The ions at m/z 265 and 266 were analyzed using selected ion monitoring. These ions represent the M0 and M1 mass isotopomers of the C2H2Br3^+ fragment (^79Br^79Br^81Br isotopologue). The enrichments of ^2H2O in water samples were calculated by comparison to standard curves generated by mixing 100% ^2H2O with unlabeled H2O in known proportions (Neese et al., Analytic Biochem 298(2):189–95, 2001).
A further data set has as its system human subjects. Put plainly: Tolerability of daily oral ^2H2O in human subjects. The class given is in vivo. The note with it: human subjects (healthy and HIV/AIDS) drinking 50–100 ml daily for 10–12 weeks.
The test system of data set [4] is humans and experimental animals. Briefly: Long-term maintenance of high body water ^2H2O enrichment, toxicity. The class given is in vivo. Particulars: 1–5% of total body water labeled, weeks or months, >100 people and experimental animals. The text has this:
Relatively high body water enrichments of ^2H2O (e.g., 1–5% of the total body water is labeled) have been achieved using the techniques of the invention. […] This finding in a large number of human subjects (>100 people) is contrary to previous concerns about vestibular toxicities at high doses of ^2H2O. Applicants have discovered that as long as rapid changes in body water enrichment are prevented (e.g., by initial administration in small, divided doses), high body water enrichments of ^2H2O can be maintained with no toxicities. Previous dosing of ^2H2O in humans, for other purposes (e.g., measurement of fatty acid or cholesterol synthesis or gluconeogenesis) have typically used lower doses and achieved lower body water enrichment. The low expense of commercially available ^2H2O allows long-term maintenance of enrichments in the 1–5% range at relatively low expense (e.g., lower cost for 2 months labeling at 2% ^2H2O enrichment, and thus 7–8% enrichment in the alanine precursor pool (FIGS. 2A–B), than for 12 hours labeling of ^2H-leucine at 10% free leucine enrichment, and thus 7–8% enrichment in leucine precursor pool for that period).

The test system of the next data set is rats. Put plainly: Tolerability of 4% ^2H2O drinking water in rats. The class given is in vivo. The note with it: rats given 4% ^2H2O as drinking water.

Where two headings read alike, the source gives them in different places.

For the molecule `C[C@]12CC[C@@H]3c4ccc(O)cc4CC[C@H]3[C@@H]1CC[C@@H]2O` [estrogen, estradiol], the “ks of bone collagen” value in the data set with bone collagen (2 weeks ^2H2O labeling) was 0.008 day⁻¹. Also, in the data set with bone collagen (2 weeks, compared to vehicle-implanted ovariectomized rats), the “decrease in ks of bone collagen” value is on record as 35–40%.

Consider ^2H-glucose, for which the half-life in data set [1] (in vivo) is 20 min.

For `[2H]C(C)(N)C(=O)O` (stereo not drawn) [^2H1-labeled alanine], the “loss of ^2H-label” value in data set [2] is “no loss of ^2H-label was observed”.

Take `[2H]O[2H]` [^2H2O]: in data set [3], the “Body ^2H2O Enrichment (%)” value turned out to be 2.6% and the “measured ^2H2O enrichment in maternal blood” value is reported as 2.4%. Also, the “adverse effects or toxicities” value in the data set with human subjects is reported as “No adverse effects or toxicities were observed”. In addition, the “toxicity at maintained body water enrichment” value in data set [4] is “without any evidence of toxicity”. Further, the “growth and signs of toxicity” value with rats is “grew normally and exhibited no signs of toxicity”. Besides, the half-life in data set [1] (turnover of body water pool) is 14400 to 20200 min.

As to `[2H]C([2H])(N)C(=O)O` [^2H2-labeled glycine], the “loss of ^2H-label” value in data set [2] was “no loss of ^2H-label was observed”.

With ^2H-leucine, the half-life in data set [1] (in vivo) is under 30 min.

(Values after US7001587B2, “Measurement of protein synthesis rates in humans and experimental systems by use of isotopically labeled water” (The Regents of the University of California, priority 2001, dated 2006).)
